Test results reported in patent EP0539088B1, “Echinocandin b derivative” (MERCK & CO. INC., priority 1991, dated 1993).
Counter-ions that a name gives are not always drawn.

Experiments:
Candida albicans MY 1028 = assay: Minimum fungicidal concentration (MFC), microbroth dilution assay in YNBD; assay type: cell-based; details: MY1028, 35°C 24 hours, then SDA 24 hours at 28°C
Source text: (§1) The compounds of the present invention are active against many fungi and as previously indicated particularly against Candida species. The antifungal properties may be illustrated with the minimum fungicidal concentration (MFC) determination against certain Candida organisms in a microbroth dilution assay carried out in a Yeast Nitrogen Base (Difco) medium with 1 percent dextrose (YNBD).
(§2) In carrying out the assay, Compound I was solubilized in 10 percent dimethyl sulfoxide (DMSO) and diluted to 2560 µg/ml. The compound was then diluted to 256 µg/ml in YNBD. 0.15 mL of the suspension was dispensed to the top row of a 96-well plate (each well containing 0.15 ml of YNBD) resulting in a drug concentration of 128 µg/ml. Two-fold dilutions were then made from the top row to obtain final drug concentrations ranging from 128 to 0.06 µg/ml. […]
(§3) 96-well microplates were inoculated-using a MIC-2000 (Dynatech) which delivers […] per well yielding a final inoculum per well of 1.5-7.5 x 10^3 cells. […] The minimum inhibitory concentrations (MICs) were recorded as the lowest concentrations of drug showing no visible growth.
(§4) After recording the MIC, the plates were shaken to resuspend the cells. […] The inoculated trays were incubated 24 hours at 28°C and then read for minimum fungicidal concentration (MFC). […]

Candida albicans MY 1055 = assay: as above; assay type: cell-based; details: MY1055, 35°C 24 hours, then SDA 24 hours at 28°C
Source text: as §1, §2, §3, §4

[1] = tested on: Candida albicans (MY 1055); assay: In vivo kidney CFU reduction in mice infected with Candida albicans; set-up: species or system female DBA/2 mice; details: 0.4 mg/kg I.P. twice daily for four consecutive days; kidneys after seven days
Experimental: Growth from an overnight SDA culture of Candica albicans MY 1055 was suspended in sterile saline and the cell concentration determined by hemacytometer count and the cell suspension adjusted to 3.75 x 10^5 cells/ml. Then 0.2 milliliter of this suspension was administered I.V. in the tail vein of mice so that the final inoculum was 7.5 x 10^4 cells/mouse.
The assay then was carried out by administering aqueous solutions of Compound I at various concentrations intraperitoneally (I.P.), twice daily (b.i.d.) for four consecutive days to 18 to 20 gram female DBA/2 mice, which previously had been infected with Candida albicans (MY 1055) in the manner described above. Distilled water was administered I.P. to C. albicans challenged mice as controls. After seven days, the mice were sacrificed by carbon dioxide gas, paired kidneys were removed aseptically and placed in sterile polyethylene bags containing 5 milliters of sterile saline. The kidneys were homogenized in the bags, serially diluted in sterile saline and aliquots spread on the surface of SDA plates. The plates were incubated at 35°C for 48 hours and yeast colonies were enumerated for determination of colony forming units (CFU) per gram of kidneys.

red blood cells = assay: Red blood cell lysis, minimum lytic concentration; assay type: cell-based, human
Source text: A harmful and potentially fatal side reaction of a number of drugs including certain antibiotically active echinocandin compounds is red blood cell lysis. […] The blood cell lysis property may be seen in the determination carried out in the following manner.
The blood employed is a 4 percent suspension of freshly drawn heparinized blood prepared by adding 2 milliliters of blood to 50 milliliters of sterile 5 percent dextrose.
Compound I was solubilized in a small volume of dimethylsulfoxide (DMSO) that was then diluted with distilled water to a final concentration of 5 percent DMSO to obtain a drug suspension of 4.0 mg/ml. A 0.2 milliliter amount of the drug suspension was added to 1.4 milliliters of sterile 5 percent dextrose to obtain the test suspension. A diluent control was also prepared.
A 96-well microliter plate with a well volume of 0.35 ml was used for the assay. Columns 2-12 were filled with 150 µl of sterile 5 percent dextrose. Then, 300 µl of test suspensions were dispensed into the wells in column 1 and serially two-fold diluted in 5 percent dextrose to yield final test concentrations of from 400 to 0.20 µg/ml. […]

CCC(C)CC(C)CCCCCCCCC(=O)NC1CC(O)C(OCCN)NC(=O)C2C(O)CCN2C(=O)C(C(O)CC(N)=O)NC(=O)C(C(O)C(O)c2ccc(O)cc2)NC(=O)C2CC(O)CN2C(=O)C(C(C)O)NC1=O (centres unmarked) [Compound I, 1-[4-hydroxy-5-aminoethyloxy-N^2-(10,12-dimethyl-1-oxotetradecyl)-ornithine]-5-(3-hydroxyglutamine)-6-(3-hydroxyproline)-echinocandin B trifluoroacetate]
MFC (Candida albicans MY 1028): 0.25 µg/mL
MFC (Candida albicans MY 1055): 0.125 µg/mL
reduction of recoverable Candida CFUs [1]: greater than 99%
red blood cell lysis (red blood cells; at concentrations far beyond what would be used for therapeutic purposes): no red blood cell lysis
Minimum lytic concentration (MLC) (red blood cells; lowest concentration producing complete or partial lysis, 2 hours at room temperature, tested 400 to 0.20 µg/ml): 400 µg/mL
